Measurements from PubChem BioAssay (NCI).
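Each compound was tested at five concentrations against cells in 96-well plates for 48 hours. TGI denotes the concentration required for complete inhibition of growth.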

Tests used:
Experiment in all cases: inhibition of tumour cell growth, NCI panel, 48 h
A549 NSCLC = system: A549 NSCLC
COLO 205 colon = system: COLO 205 colon
HCT-15 colon = system: HCT-15 colon
ACHN renal = system: ACHN renal
HCT-116 colon = system: HCT-116 colon
CAKI-1 renal = system: CAKI-1 renal
EKVX NSCLC = system: EKVX NSCLC
K-562 leukemia = system: K-562 leukemia
LOX IMVI melanoma = system: LOX IMVI melanoma
CCRF-CEM leukemia = system: CCRF-CEM leukemia
U251 CNS = system: U251 CNS
NCI-H460 lung = system: NCI-H460 lung
IGROV1 ovarian = system: IGROV1 ovarian
SF-295 CNS = system: SF-295 CNS
SK-MEL-2 melanoma = system: SK-MEL-2 melanoma
MOLT-4 leukemia = system: MOLT-4 leukemia
SW-620 colon = system: SW-620 colon
TK-10 renal = system: TK-10 renal
UACC-62 melanoma = system: UACC-62 melanoma
HOP-62 NSCLC = system: HOP-62 NSCLC
SK-OV-3 ovarian = system: SK-OV-3 ovarian
786-0 renal = system: 786-0 renal
OVCAR-8 ovarian = system: OVCAR-8 ovarian
UO-31 renal = system: UO-31 renal
MCF7 breast = system: MCF7 breast
SNB-75 CNS = system: SNB-75 CNS
MDA-MB-435 = system: MDA-MB-435
SR leukemia = system: SR leukemia
HS 578T breast = system: HS 578T breast
SK-MEL-28 melanoma = system: SK-MEL-28 melanoma
KM12 colon = system: KM12 colon
T-47D breast = system: T-47D breast
OVCAR-5 ovarian = system: OVCAR-5 ovarian
SF-268 CNS = system: SF-268 CNS
NCI-H522 lung = system: NCI-H522 lung
NCI-H226 lung = system: NCI-H226 lung
HL-60(TB) leukemia = system: HL-60(TB) leukemia
OVCAR-3 ovarian = system: OVCAR-3 ovarian
RXF 393 renal = system: RXF 393 renal
PC-3 prostate = system: PC-3 prostate
UACC-257 melanoma = system: UACC-257 melanoma
NCI/ADR-RES ovarian = system: NCI/ADR-RES ovarian
MDA-MB-231 breast = system: MDA-MB-231 breast
SNB-19 CNS = system: SNB-19 CNS
DU-145 prostate = system: DU-145 prostate
M14 melanoma = system: M14 melanoma
HT29 colon = system: HT29 colon
SN12C renal = system: SN12C renal
NCI-H23 lung = system: NCI-H23 lung
HOP-92 NSCLC = system: HOP-92 NSCLC
BT-549 breast = system: BT-549 breast
SF-539 CNS = system: SF-539 CNS
A498 renal = system: A498 renal
RPMI-8226 leukemia = system: RPMI-8226 leukemia
MALME-3M melanoma = system: MALME-3M melanoma
HCC-2998 colon = system: HCC-2998 colon
SK-MEL-5 melanoma = system: SK-MEL-5 melanoma

## c1ccc(Cc2cc(-c3ccccc3)n[nH]2)cc1
A549 NSCLC
  TGI: 26 µM
COLO 205 colon
  TGI: 31.2 µM
HCT-15 colon
  TGI: 53 µM
ACHN renal
  TGI: 36.4 µM
HCT-116 colon
  TGI: 88.9 µM
CAKI-1 renal
  TGI: 32.9 µM
EKVX NSCLC
  TGI: 27.5 µM
K-562 leukemia
  TGI: 25.6 µM
LOX IMVI melanoma
  TGI: 28.3 µM
CCRF-CEM leukemia
  TGI: 27 µM
U251 CNS
  TGI: 27.9 µM
NCI-H460 lung
  TGI: 33.3 µM
IGROV1 ovarian
  TGI: 34 µM
SF-295 CNS
  TGI: 19.5 µM
SK-MEL-2 melanoma
  TGI: 31.8 µM
MOLT-4 leukemia
  TGI: 23.1 µM
SW-620 colon
  TGI: 28.7 µM
TK-10 renal
  TGI: 42.5 µM
UACC-62 melanoma
  TGI: 27.4 µM
HOP-62 NSCLC
  TGI: 92.9 µM
SK-OV-3 ovarian
  TGI: > 100 µM
786-0 renal
  TGI: 43.4 µM
OVCAR-8 ovarian
  TGI: 30.9 µM
UO-31 renal
  TGI: 49.8 µM
MCF7 breast
  TGI: 40.3 µM
SNB-75 CNS
  TGI: 15.8 µM
MDA-MB-435
  TGI: 22.8 µM
SR leukemia
  TGI: 32.3 µM
HS 578T breast
  TGI: 36.7 µM
SK-MEL-28 melanoma
  TGI: 25.8 µM
KM12 colon
  TGI: 28.8 µM
T-47D breast
  TGI: > 100 µM
OVCAR-5 ovarian
  TGI: 47.9 µM
SF-268 CNS
  TGI: 57.6 µM
NCI-H522 lung
  TGI: 33.2 µM
NCI-H226 lung
  TGI: 33.5 µM
HL-60(TB) leukemia
  TGI: 39.3 µM
OVCAR-3 ovarian
  TGI: 16.8 µM
RXF 393 renal
  TGI: 22.1 µM
PC-3 prostate
  TGI: 34.2 µM
UACC-257 melanoma
  TGI: 31.5 µM
NCI/ADR-RES ovarian
  TGI: 49.4 µM
MDA-MB-231 breast
  TGI: 25.8 µM
SNB-19 CNS
  TGI: 82.7 µM
DU-145 prostate
  TGI: 26.2 µM
M14 melanoma
  TGI: 80.1 µM
HT29 colon
  TGI: 23.2 µM
SN12C renal
  TGI: 26.3 µM

## O=C1C(NCCF)=C(Cl)C(=O)c2ncccc21
A549 NSCLC
  TGI: 3.79 µM
NCI-H23 lung
  TGI: 2.8 µM
HCT-15 colon
  TGI: 2.08 µM
ACHN renal
  TGI: 3.62 µM
HCT-116 colon
  TGI: 2.4 µM
HOP-92 NSCLC
  TGI: 3.67 µM
BT-549 breast
  TGI: 2.86 µM
EKVX NSCLC
  TGI: 3.47 µM
K-562 leukemia
  TGI: 0.575 µM
LOX IMVI melanoma
  TGI: 1.61 µM
CCRF-CEM leukemia
  TGI: 0.695 µM
U251 CNS
  TGI: 2 µM
NCI-H460 lung
  TGI: 1.68 µM
IGROV1 ovarian
  TGI: 3.28 µM
SF-295 CNS
  TGI: 3.02 µM
SF-539 CNS
  TGI: 2.34 µM
SK-MEL-2 melanoma
  TGI: 0.794 µM
MOLT-4 leukemia
  TGI: 3.27 µM
A498 renal
  TGI: 3.17 µM
SW-620 colon
  TGI: 2.15 µM
TK-10 renal
  TGI: 3.23 µM
UACC-62 melanoma
  TGI: 1.25 µM
HOP-62 NSCLC
  TGI: 3.47 µM
SK-OV-3 ovarian
  TGI: 3.28 µM
786-0 renal
  TGI: 2.51 µM
OVCAR-8 ovarian
  TGI: 3.27 µM
MCF7 breast
  TGI: 2.28 µM
SNB-75 CNS
  TGI: 1.93 µM
MDA-MB-435
  TGI: 0.353 µM
RPMI-8226 leukemia
  TGI: 1.78 µM
SR leukemia
  TGI: 5.35 µM
HS 578T breast
  TGI: 4.01 µM
SK-MEL-28 melanoma
  TGI: 2 µM
KM12 colon
  TGI: 2.93 µM
MALME-3M melanoma
  TGI: 1.2 µM
T-47D breast
  TGI: 5.04 µM
OVCAR-5 ovarian
  TGI: 3.46 µM
SF-268 CNS
  TGI: 4.17 µM
NCI-H226 lung
  TGI: 3.66 µM
HL-60(TB) leukemia
  TGI: 0.854 µM
RXF 393 renal
  TGI: 2.01 µM
PC-3 prostate
  TGI: 3.45 µM
UACC-257 melanoma
  TGI: 3.23 µM
MDA-MB-231 breast
  TGI: 5.19 µM
SNB-19 CNS
  TGI: 2.68 µM
HCC-2998 colon
  TGI: 2.5 µM
DU-145 prostate
  TGI: 2.33 µM
SK-MEL-5 melanoma
  TGI: 0.343 µM
M14 melanoma
  TGI: 2.28 µM
HT29 colon
  TGI: 6.15 µM
SN12C renal
  TGI: 2.2 µM
